Data: patent US12435060B2, “Acylamino bridged heterocyclic compound, and composition and application thereof” (BEIJING SCITECH-MQ PHARMACEUTICALS LIMITED, priority 2019, dated 2025)

System: HT29 cells
Assay: Inhibition of cell necrosis (CCK8 method), induced programmed necrosis of HT29 cells
Assay type: cell-based
Conditions: Homo sapiens, HT-29; rescue from necrosis induced by TNF-α 20 ng/mL, AT-406 1 μM, Z-VAD-FMK 20 μM; 16-20 hours; CCK-8, OD 450 nm
Outline: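 HT29 cells in McCOY's 5A with 10% FBS were pre-treated for 30 min with compound (9 fourfold steps, 25000 to 0.38 nM final, 0.25% DMSO). Necrosis was then induced with TNF-α 20 ng/mL, AT-406 1 μM and Z-VAD-FMK 20 μM for 16-20 h. Viability was read by CCK-8 OD450, normalized between uninduced and induced wells, and IC50 was curve-fitted.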

SMILES	IC50 [nM]
CC(C)(O)CCCOc1ccc(C(F)(F)F)c(-c2ccnc(NC(=O)c3nnc(Cc4cccc(F)c4)[nH]3)c2)c1 [Example 256, 5-(3-fluorobenzyl)-N-(4-(5-((4-hydroxy-4-methylpentyl)oxy)-2-(trifluoromethyl)phenyl)pyridin-2-yl)-4H-1,2,4-triazole-3-carboxamide]	≤ 100
Cc1ccc(OCC2CCOCC2)cc1-c1ccnc(NC(=O)c2nnc(CC3CCCCC3)[nH]2)c1 [Example 80, 5-(cyclohexylmethyl)-N-(4-(2-methyl-5-((tetrahydro-2H-pyran-4-yl)methoxy)phenyl)pyridin-2-yl)-4H-1,2,4-triazole-3-carboxamide]	≤ 100
Cc1ccc(OCCC2CCOCC2)cc1-c1cc(NC(=O)c2nnc(CC3CCCCC3)[nH]2)ncn1 [Example 448, 5-(cyclohexylmethyl)-N-(6-(2-methyl-5-(2-(tetrahydro-2H-pyran-4-yl)ethoxy)phenyl)pyrimidin-4-yl)-4H-1,2,4-triazole-3-carboxamide]	≤ 100
O=C(Nc1cc(-c2cc(OCCC3CCOCC3)ccc2C(F)(F)F)ccn1)c1nnc(Cc2ccccc2F)[nH]1 [Example 306, 5-(2-fluorobenzyl)-N-(4-(5-(2-(tetrahydro-2H-pyran-4-yl)ethoxy)-2-(trifluoromethyl)phenyl)pyridin-2-yl)-4H-1,2,4-triazole-3-carboxamide]	≤ 100
Cc1ccc(OCCCC(F)(F)F)cc1-c1ccnc(NC(=O)c2nnc(Cc3ccccc3)[nH]2)c1 [Example 138, 5-benzyl-N-(4-(2-methyl-5-(4,4,4-trifluorobutoxy)phenyl)pyridin-2-yl)-4H-1,2,4-triazole-3-carboxamide]	≤ 100
CC(C)(O)COc1ccc(Cl)c(-c2ccnc(NC(=O)c3nnc(CC4CCCC4)[nH]3)c2)c1 [Example 365, N-(4-(2-chloro-5-(2-hydroxyl-2-methylpropoxy)phenyl)pyridin-2-yl)-5-(cyclopentylmethyl)-4H-1,2,4-triazole-3-carboxamide]	≤ 100
Cc1cnc(OC(C)C)c(-c2ccnc(NC(=O)c3nnc(Cc4ccccc4)[nH]3)c2)c1 [Example 52, 5-benzyl-N-(2-isopropoxy-5-methyl-[3,4′-bipyridin]-2′-yl)-4H-1,2,4-triazole-3-carboxamide]	> 10000
COCCCOc1ccc(C)c(-c2ccnc(NC(=O)c3nnc(Cc4ccccc4)s3)c2)c1 [Example 146, 5-benzyl-N-(4-(5-(3-methoxypropoxy)-2-methylphenyl)pyridin-2-yl)-1,3,4-thiodiazol-2-carboxamide]	1000 to 10000
CC(C)(O)CCCOc1ccc(Cl)c(-c2ccnc(NC(=O)c3nnc(CN4CCCC4)[nH]3)c2)c1 [Example 358, N-(4-(2-chloro-5-((4-hydroxy-4-methylpentyl)oxy)phenyl)pyridin-2-yl)-5-(pyrrolidin-1-ylmethyl)-4H-1,2,4-triazole-3-carboxamide]	> 10000
Cc1ccc(OCCCC(C)(C)O)cc1-c1cc(NC(=O)c2nnc(Cc3ccccc3F)[nH]2)ncc1Cl [Example 238, N-(5-chloro-4-(5-((4-hydroxy-4-methylpentyl)oxy)-2-methylphenyl)pyridin-2-yl)-5-(2-fluorobenzyl)-4H-1,2,4-triazole-3-carboxamide]	≤ 100
COCCOc1ccc(C)c(-c2ccnc(NC(=O)c3nnc(Cc4ccccc4)[nH]3)c2)c1 [Example 128, 5-benzyl-N-(4-(5-(2-methoxyethoxy)-2-methylphenyl)pyridin-2-yl)-4H-1,2,4-triazole-3-carboxamide]	≤ 100
O=C(Nc1cc(-c2cc(OCCCCO)ccc2Cl)ccn1)c1nnc(Cc2ccccc2F)[nH]1 [Example 372, 5-(2-fluorobenzyl)-N-(4-(2-chloro-5-(4-hydroxybutoxy)phenyl)pyridin-2-yl)-4H-1,2,4-triazole-3-carboxamide]	≤ 100
O=C(Nc1cc(-c2cc(OCC3CCOCC3)ccc2C(F)(F)F)ccn1)c1nnc(Cc2ccc(F)cc2)[nH]1 [Example 302, 5-(4-fluorobenzyl)-N-(4-(5-((tetrahydro-2H-pyran-4-yl)methoxy)-2-(trifluoromethyl)phenyl)pyridin-2-yl)-4H-1,2,4-triazole-3-carboxamide]	≤ 100
Cc1ccc(OCCOCC(C)C)cc1-c1ccnc(NC(=O)c2nnc(Cc3ccccc3)[nH]2)c1 [Example 70, 5-benzyl-N-(4-(5-(2-isobutoxyethoxy)-2-methylphenyl)pyridin-2-yl)-4H-1,2,4-triazole-3-carboxamide]	≤ 100
CC(C)(O)CCCOc1ccc(Cl)c(-c2ccnc(NC(=O)c3nnc(Cc4cc(Cl)ccc4F)[nH]3)c2)c1 [Example 340, 5-(5-chloro-2-fluorobenzyl)-N-(4-(2-chloro-5-((4-hydroxy-4-methylpentyl)oxy)phenyl)pyridin-2-yl)-4H-1,2,4-triazole-3-carboxamide]	100 to 1000
CCC(O)(CC)CCCOc1ccc(C)c(-c2cc(NC(=O)c3nnc(CC4CCCCC4)[nH]3)ncc2C)c1 [Example 246, 5-(cyclohexylmethyl)-N-(4-(5-((4-ethyl-4-hydroxyhexyl)oxy)-2-methylphenyl)-5-methylpyridin-2-yl)-4H-1,2,4-triazole-3-carboxamide]	100 to 1000

SMILES	IC50 [nM]
Cc1ccc(OCCC2CCOCC2)cc1-c1cc(NC(=O)c2nnc(CC3CCCC3)[nH]2)ncn1 [Example 447, 5-(cyclopentylmethyl)-N-(6-(2-methyl-5-(2-(tetrahydro-2H-pyran-4-yl)ethoxy)phenyl)pyrimidin-4-yl)-4H-1,2,4-triazole-3-carboxamide]	≤ 100
CC(C)(O)CCCOc1cc(F)c(Cl)c(-c2ccnc(NC(=O)c3nnc(Cc4ccccc4F)[nH]3)c2)c1 [Example 408, N-(4-(2-chloro-3-fluoro-5-((4-hydroxy-4-methylpentyl)oxy)phenyl)pyridin-2-yl)-5-(2-fluorobenzyl)-4H-1,2,4-triazole-3-carboxamide]	> 10000
COCCOc1cccc(-c2ccnc(NC(=O)c3nnc(Cc4ccccc4)[nH]3)c2)c1C [Example 96, 5-benzyl-N-(4-(3-(2-methoxyethoxy)-2-methylphenyl)pyridin-2-yl)-4H-1,2,4-triazole-3-carboxamide]	100 to 1000
CC(C)(O)CCCOc1ccc(Cl)c(-c2cc(NC(=O)c3nnc(CC4CCCCC4)[nH]3)ncc2F)c1 [Example 410, N-(4-(2-chloro-5-((4-hydroxy-4-methylpentyl)oxy)phenyl)-5-fluoropyridin-2-yl)-5-(cyclohexylmethyl)-4H-1,2,4-triazole-3-carboxamide]	≤ 100
Cc1ccc(OC2CCOCC2)cc1-c1ccnc(NC(=O)c2nnc(Cc3ccccc3)[nH]2)c1 [Example 65, 5-benzyl-N-(4-(2-methyl-5-((tetrahydro-2H-pyran-4-yl)oxy)phenyl)pyridin-2-yl)-4H-1,2,4-triazole-3-carboxamide]	≤ 100
Cc1ccc(OCCCC(C)(C)O)cc1-c1ccnc(NC(=O)c2nnc(Cc3cc(Cl)ccc3F)[nH]2)c1 [Example 204, 5-(5-chloro-2-fluorobenzyl)-N-(4-(5-((4-hydroxy-4-methylpentyl)oxy)-2-methylphenyl)pyridin-2-yl)-4H-1,2,4-triazole-3-carboxamide]	≤ 100
COc1cccc(Cc2nnc(C(=O)Nc3cc(-c4cc(OCCCC(C)(C)O)ccc4C)ccn3)[nH]2)c1 [Example 186, 5-(3-methoxybenzyl)-N-(4-(5-((4-hydroxy-4-methylpentyl)oxy)-2-methylphenyl)pyridin-2-yl)-4H-1,2,4-triazole-3-carboxamide]	100 to 1000
CC(C)OCCOc1ccc(C(F)(F)F)c(-c2ccnc(NC(=O)c3nnc(Cc4ccccc4)[nH]3)c2)c1 [Example 287, 5-benzyl-N-(4-(5-(2-isopropoxyethoxy)-2-(trifluoromethyl)phenyl)pyridin-2-yl)-4H-1,2,4-triazole-3-carboxamide]	≤ 100
CC(C)(O)CCCOc1ccc(Cl)c(-c2ccnc(NC(=O)c3nnc(Cc4cc(C(F)(F)F)ccc4F)[nH]3)c2)c1 [Example 347, N-(4-(2-chloro-5-((4-hydroxy-4-methylpentyl)oxy)phenyl)pyridin-2-yl)-5-(2-fluoro-5-(trifluoromethyl)benzyl)-4H-1,2,4-triazole-3-carboxamide]	100 to 1000
Cc1ccc(OCC2COC2)cc1-c1ccnc(NC(=O)c2nnc(Cc3ccccc3)[nH]2)c1 [Example 66, 5-benzyl-N-(4-(2-methyl-5-(oxetan-3-ylmethoxy)phenyl)pyridin-2-yl)-4H-1,2,4-triazole-3-carboxamide]	≤ 100
Cc1ccc(OCCN2CCN(C)CC2)cc1-c1ccnc(NC(=O)c2nnc(Cc3ccccc3)[nH]2)c1 [Example 136, 5-benzyl-N-(4-(2-methyl-5-(2-(4-methylpiperazin-1-yl)ethoxy)phenyl)pyridin-2-yl)-4H-1,2,4-triazole-3-carboxamide]	≤ 100
O=C(Nc1cc(-c2cc(OCCC3CCOCC3)ccc2F)c(Cl)cn1)c1nnc(Cc2ccccc2F)[nH]1 [Example 333, N-(5-chloro-4-(2-fluoro-5-(2-(tetrahydro-2H-pyran-4-yl)ethoxy)phenyl)pyridin-2-yl)-5-(2-fluorobenzyl)-4H-1,2,4-triazole-3-carboxamide]	100 to 1000
CC(C)(O)CCCOc1ccc(C#N)c(-c2ccnc(NC(=O)c3nnc(Cc4ccccc4)[nH]3)c2)c1 [Example 193, 5-benzyl-N-(4-(2-cyano-5-((4-hydroxy-4-methylpentyl)oxy)phenyl)pyridin-2-yl)-4H-1,2,4-triazole-3-carboxamide]	≤ 100
CCC(O)(CC)CCCOc1ccc(Cl)c(-c2ccnc(NC(=O)c3nnc(Cc4ccccc4F)[nH]3)c2)c1 [Example 360, N-(4-(2-chloro-5-((4-ethyl-4-hydroxyhexyl)oxy)phenyl)pyridin-2-yl)-5-(2-fluorobenzyl)-4H-1,2,4-triazole-3-carboxamide]	≤ 100
Cc1ccc(OCCCC(C)(C)O)cc1-c1ccnc(NC(=O)c2nnc(Cc3ccc(Cl)cc3)[nH]2)c1 [Example 189, 5-(4-chlorobenzyl)-N-(4-(5-((4-hydroxy-4-methylpentyl)oxy)-2-methylphenyl)pyridin-2-yl)-4H-1,2,4-triazole-3-carboxamide]	≤ 100
